Test results from ChEMBL document CHEMBL4138131, “Design, synthesis, kinetic mechanism and molecular docking studies of novel 1-pentanoyl-3-arylthioureas as inhibitors of mushroom tyrosinase and free radical scavengers” (Eur J Med Chem, 2017).
Active and inactive are the calls of the source. The calls are words filed in the database; no cut-off is given here.

T1: Tyrosinase (Agaricus bisporus, UniProt O42713)
T1 sequence (O42713 whole entry): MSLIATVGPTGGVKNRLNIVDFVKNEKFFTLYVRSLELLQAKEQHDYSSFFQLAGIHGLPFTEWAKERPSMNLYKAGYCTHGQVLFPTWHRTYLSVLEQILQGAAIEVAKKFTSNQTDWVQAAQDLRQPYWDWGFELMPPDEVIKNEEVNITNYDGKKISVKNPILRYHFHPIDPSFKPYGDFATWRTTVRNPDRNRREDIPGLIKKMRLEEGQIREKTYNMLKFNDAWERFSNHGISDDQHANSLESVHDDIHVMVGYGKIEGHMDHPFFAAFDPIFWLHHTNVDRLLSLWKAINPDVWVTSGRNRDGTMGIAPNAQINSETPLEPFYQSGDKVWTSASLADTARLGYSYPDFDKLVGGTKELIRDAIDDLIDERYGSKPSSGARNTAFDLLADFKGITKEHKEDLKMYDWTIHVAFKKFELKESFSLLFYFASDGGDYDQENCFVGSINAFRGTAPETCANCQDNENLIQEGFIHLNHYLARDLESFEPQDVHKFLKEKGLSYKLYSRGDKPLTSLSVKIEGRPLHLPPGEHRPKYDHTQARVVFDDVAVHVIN

T2: Tyrosinase (Agaricus bisporus) (UniProt O42713)
T2 sequence (whole entry): T1 sequence (O42713 whole entry)

B1: Tyrosinase (Agaricus bisporus), O42713 (protein)
chain: T1 sequence (O42713 whole entry)

What was measured:
[1] = Antioxidant activity assessed as DPPH radical scavenging activity at 100 ug/ml relative to control; format: functional
Tyrosinase [2] = biological target: T1, Tyrosinase; assay: Inhibition of mushroom tyrosinase using L-DOPA as substrate preincubated for 10 mins followed by substrate addition measured for 20 mins
[3] = biological target: T2, Tyrosinase (Agaricus bisporus); assay: Non-competitive inhibition of mushroom tyrosinase assessed as 1/Vmax at 4.336 uM using L-DOPA as substrate preincubated for 10 mins followed by substrate addition measured up to 5 mins by Line-weaver Burk plot analysis
Tyrosinase [4] = biological target: T1, Tyrosinase; assay: Non-competitive inhibition of mushroom tyrosinase using L-DOPA as substrate preincubated for 10 mins followed by substrate addition measured up to 5 mins by Dixon plot analysis
[5] = biological target: T2, Tyrosinase (Agaricus bisporus); assay: Non-competitive inhibition of mushroom tyrosinase assessed as 1/Vmax at 0.271 uM using L-DOPA as substrate preincubated for 10 mins followed by substrate addition measured up to 5 mins by Line-weaver Burk plot analysis
[6] = biological target: T2, Tyrosinase (Agaricus bisporus); assay: Non-competitive inhibition of mushroom tyrosinase assessed as 1/Vmax at 1.084 uM using L-DOPA as substrate preincubated for 10 mins followed by substrate addition measured up to 5 mins by Line-weaver Burk plot analysis
[7] = biological target: T2, Tyrosinase (Agaricus bisporus); assay: Potency index ratio of kojic acid IC50 to compound IC50 for inhibition of mushroom tyrosinase
[8] = biological target: T2, Tyrosinase (Agaricus bisporus); assay: Non-competitive inhibition of mushroom tyrosinase assessed as 1/Vmax at 2.18 uM using L-DOPA as substrate preincubated for 10 mins followed by substrate addition measured up to 5 mins by Line-weaver Burk plot analysis
[9] = biological target: T2, Tyrosinase (Agaricus bisporus); assay: Non-competitive inhibition of mushroom tyrosinase assessed as 1/Vmax at 0.542 uM using L-DOPA as substrate preincubated for 10 mins followed by substrate addition measured up to 5 mins by Line-weaver Burk plot analysis
[10] = biological target: T2, Tyrosinase (Agaricus bisporus); assay: Non-competitive inhibition of mushroom tyrosinase at 0.271 to 4.336 uM using L-DOPA as substrate preincubated for 10 mins followed by substrate addition measured up to 5 mins by Line-weaver Burk plot analysis
[11] = biological target: T2, Tyrosinase (Agaricus bisporus); assay: Irreversible inhibition of mushroom tyrosinase at 0.271 to 4.336 uM using L-DOPA as substrate preincubated for 10 mins followed by substrate addition measured up to 5 mins by Line-weaver Burk plot analysis
[12] = compound: CCCCC(=O)NC(=S)Nc1ccc(OC)cc1; assay: Non-competitive inhibition of mushroom tyrosinase assessed as substrate Km at 0.271 uM using L-DOPA as substrate preincubated for 10 mins followed by substrate addition measured up to 5 mins by Line-weaver Burk plot analysis; conditions: Agaricus bisporus
[13] = compound: CCCCC(=O)NC(=S)Nc1ccc(OC)cc1; assay: Non-competitive inhibition of mushroom tyrosinase assessed as substrate Km at 4.336 uM using L-DOPA as substrate preincubated for 10 mins followed by substrate addition measured up to 5 mins by Line-weaver Burk plot analysis; conditions: Agaricus bisporus
[14] = compound: CCCCC(=O)NC(=S)Nc1ccc(OC)cc1; assay: Non-competitive inhibition of mushroom tyrosinase assessed as substrate Km at 0.542 uM using L-DOPA as substrate preincubated for 10 mins followed by substrate addition measured up to 5 mins by Line-weaver Burk plot analysis; conditions: Agaricus bisporus
[15] = compound: CCCCC(=O)NC(=S)Nc1ccc(OC)cc1; assay: Non-competitive inhibition of mushroom tyrosinase assessed as substrate Km at 2.18 uM using L-DOPA as substrate preincubated for 10 mins followed by substrate addition measured up to 5 mins by Line-weaver Burk plot analysis; conditions: Agaricus bisporus
[16] = compound: CCCCC(=O)NC(=S)Nc1ccc(OC)cc1; assay: Non-competitive inhibition of mushroom tyrosinase assessed as substrate Km at 1.084 uM using L-DOPA as substrate preincubated for 10 mins followed by substrate addition measured up to 5 mins by Line-weaver Burk plot analysis; conditions: Agaricus bisporus

Molecule | Activity [1] | IC50 (Tyrosinase [2]) | further results
CCCCC(=O)NC(=S)Nc1cccc(Cl)c1Cl | inactive | 7.75 µM | 
CCCCC(=O)NC(=S)Nc1ccc([N+](=O)[O-])cc1 | inactive | 7.99 µM | 
CCCCC(=O)NC(=S)Nc1cccc([N+](=O)[O-])c1 | inactive | 16.6 µM | 
CCCCC(=O)NC(=S)Nc1c(Br)cc(F)cc1Br | inactive | 19.5 µM | 
CCCCC(=O)NC(=S)Nc1ccc(OC)cc1 | 80% | 1.57 µM | 1/Vmax [3]: 186000 deltaA/s; Ki (Tyrosinase [4]): 1.1 µM; 1/Vmax [5]: 28600 deltaA/s; 1/Vmax [6]: 90500 deltaA/s; Ratio IC50 [7]: 15; 1/Vmax [8]: 110000 deltaA/s; 1/Vmax [9]: 52400 deltaA/s; inhibition [10]: Active; inhibition [11]: Active
CCCCC(=O)NC(=S)Nc1ccc(Cl)cc1 | inactive | 2.32 µM | 
CCCCC(=O)NC(=S)Nc1ccc(Br)cc1F | inactive | 6.46 µM | 
CCCCC(=O)NC(=S)Nc1ccc([N+](=O)[O-])cc1[N+](=O)[O-] | inactive | 10.1 µM | 
CCCCC(=O)NC(=S)Nc1c(C)cc(C)cc1C | inactive | 19.7 µM | 
CCCCC(=O)NC(=S)Nc1ccc(Br)cc1 | inactive | 3.37 µM | 
B1 |  |  | Km [12]: 389 µM; Km [13]: 389 µM; Km [14]: 389 µM; Km [15]: 389 µM; Km [16]: 389 µM
